Assay results taken from article PMC2920594 (Journal of the American Chemical Society, 2010).
In brackets after ≈: the same amount, converted by molar mass.

Biological target: FtsZ (Escherichia coli, UniProt P0A9A6)
Experiment: STD NMR and STD NMR competition with GTPγS
Format: biochemical

FtsZ, sequence (P0A9A6 whole entry): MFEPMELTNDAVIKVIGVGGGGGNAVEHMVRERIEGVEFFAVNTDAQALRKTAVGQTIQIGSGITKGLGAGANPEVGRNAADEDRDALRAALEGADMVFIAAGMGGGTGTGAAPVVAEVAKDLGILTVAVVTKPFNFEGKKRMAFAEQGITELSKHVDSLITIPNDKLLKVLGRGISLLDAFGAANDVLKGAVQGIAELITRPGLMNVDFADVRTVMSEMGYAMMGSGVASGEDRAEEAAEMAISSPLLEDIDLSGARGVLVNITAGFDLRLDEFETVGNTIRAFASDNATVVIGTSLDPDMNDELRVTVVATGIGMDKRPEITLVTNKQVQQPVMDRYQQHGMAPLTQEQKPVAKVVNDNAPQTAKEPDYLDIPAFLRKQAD

Work on `Oc1cc(O)c2c(c1)C/C(Cl)=C\Cc1cc(c(Cl)cc1O)Oc1c(O)cc(cc1O)C/C(Cl)=C\Cc1cc(c(Cl)cc1O)O2` [compound 1, chrysophaentin A] yielded an IC50 of 6.7 ± 1.7 µg/mL (≈ 9.88 µM).
